Source: the NIST ThermoML archive (doi:10.1021/acs.jced.6b00460)

Assay: xn = mol fraction of the nth substance listed
Conditions: 101 kPa, Liquid; for speed of sound: Sing-around technique in a fixed-path interferometer; for mass density: Vibrating tube method

CCCCCC[n+]1ccccc1.[Br-] [1-hexylpyridinium bromide] + O
Conditions | mass density, 308.15 K [kg/m3] | mass density, 318.15 K [kg/m3] | speed of sound, 308.15 K [m/s] | speed of sound, 318.15 K [m/s]
x2 = 0.0609 | 1235 | 1228.39 | 1589.8 | 1556.2
x2 = 0.1184 | 1234.11 | 1227.43 | 1587.3 | 1555.1
x2 = 0.2091 | 1232.19 | 1225.43 | 1583.4 | 1553.2
x2 = 0.2544 | 1230.93 | 1224.15 | 1580.7 | 1552.2
x2 = 0.3097 | 1229.05 | 1222.25 | 1578.7 | 1551.4
x2 = 0.414 | 1224.2 | 1217.39 | 1574.6 | 1550
x2 = 0.4533 | 1221.81 | 1215.01 | 1572.9 | 1549.3
x2 = 0.5028 | 1218.26 | 1211.46 | 1571.8 | 1548.7
x2 = 0.5928 | 1209.73 | 1202.97 | 1570.1 | 1547.5
x2 = 0.6486 | 1202.64 | 1195.91 | 1565.9 | 1547.1
x2 = 0.7138 | 1191.79 | 1185.1 | 1561.6 | 1546.5
x2 = 0.7554 | 1182.79 | 1176.19 | 1557.1 | 1545.7
x2 = 0.7995 | 1170.69 | 1164.19 | 1551.1 | 1545
x2 = 0.8534 | 1150.45 | 1144.16 | 1543.3 | 1543.3
x2 = 0.9011 | 1124.03 | 1118.08 | 1535.9 | 1541.3
x2 = 0.9511 | 1079.2 | 1073.95 | 1528.1 | 1539.1

CCCCCC[n+]1ccccc1.[Cl-] [1-hexylpyridinium chloride] + O
Conditions | mass density, 308.15 K [kg/m3] | mass density, 318.15 K [kg/m3] | speed of sound, 308.15 K [m/s] | speed of sound, 318.15 K [m/s]
x2 = 0.0598 | 1146.46 | 1142.37 | 1569.2 | 1548.7
x2 = 0.1085 | 1146.26 | 1142.04 | 1567.4 | 1548.1
x2 = 0.2068 | 1145.6 | 1141.23 | 1564.8 | 1547.2
x2 = 0.2492 | 1145.16 | 1140.76 | 1563.9 | 1546.6
x2 = 0.3024 | 1144.44 | 1140.03 | 1562.9 | 1546
x2 = 0.4166 | 1142.05 | 1137.61 | 1560.3 | 1544.8
x2 = 0.4568 | 1140.82 | 1136.36 | 1559.6 | 1544.1
x2 = 0.5065 | 1138.92 | 1134.43 | 1557.6 | 1543.4
x2 = 0.6137 | 1132.92 | 1128.25 | 1553.2 | 1542
x2 = 0.6533 | 1129.75 | 1124.99 | 1550.8 | 1541.4
x2 = 0.709 | 1124.03 | 1119.08 | 1547.4 | 1540.6
x2 = 0.7521 | 1118.2 | 1113.12 | 1542.8 | 1540
x2 = 0.7936 | 1110.94 | 1105.73 | 1539.5 | 1539.4
x2 = 0.8561 | 1095.34 | 1090.02 | 1534 | 1538.6
x2 = 0.8966 | 1080.31 | 1074.99 | 1529.9 | 1538.2
x2 = 0.9528 | 1046.95 | 1042 | 1524.5 | 1537.2

CCCCCCCC[n+]1ccccc1.[Cl-] [N-octylpyridinium chloride] + O
Conditions | mass density, 308.15 K [kg/m3] | mass density, 318.15 K [kg/m3] | speed of sound, 308.15 K [m/s] | speed of sound, 318.15 K [m/s]
x2 = 0.0625 | 1128.68 | 1122.77 | 1483.2 | 1452.1
x2 = 0.1156 | 1128.57 | 1122.56 | 1484.1 | 1453.2
x2 = 0.2085 | 1128.29 | 1122.18 | 1485.3 | 1456.7
x2 = 0.2545 | 1128.08 | 1121.95 | 1486.2 | 1458.4
x2 = 0.306 | 1127.76 | 1121.63 | 1488 | 1461.8
x2 = 0.4127 | 1126.71 | 1120.54 | 1491.7 | 1464.8
x2 = 0.4534 | 1126.09 | 1119.9 | 1493.7 | 1466.1
x2 = 0.4995 | 1125.19 | 1118.95 | 1495 | 1469.4
x2 = 0.6103 | 1121.68 | 1115.24 | 1499.8 | 1473.8
x2 = 0.6508 | 1119.68 | 1113.12 | 1501.8 | 1477.2
x2 = 0.6962 | 1116.7 | 1110.01 | 1504.9 | 1481.8
x2 = 0.7542 | 1111.3 | 1104.41 | 1507.1 | 1487.1
x2 = 0.8086 | 1103.65 | 1096.63 | 1509.4 | 1493.7
x2 = 0.8512 | 1094.75 | 1087.7 | 1511.3 | 1497.9
x2 = 0.9009 | 1078.75 | 1071.93 | 1513.2 | 1505.5
x2 = 0.9485 | 1052.47 | 1046.38 | 1515.5 | 1515.2
